Assay results taken from publication PMC6633864, “Intestinal Absorption Profile of Three Polygala Oligosaccharide Esters in Polygalae Radix and the Effects of Other Components in Polygalae Radix on Their Absorption” (Evidence-based Complementary and Alternative Medicine : eCAM, 2019).

Columns and labels:
[1] = Intestinal absorption in vitro by the everted rat gut sac model; type: in vitro ADME; conditions: n = 5
[2] = Drug stability in blank intestinal circulation fluid; type: in vitro ADME, rat; conditions: 37°C, 3 h
Experimental: The K–R culture solution was circulated in rat intestines for 3 h. PRE, SA5, SA6, and DISS were dissolved in the blank intestinal circulation fluid at concentrations of 12 mg/ml, 0.050 mg/ml, 0.086 mg/ml, and 0.198 mg/ml, respectively, and incubated at 37°C for 3 h. Aliquots of 1 ml samples were taken out at 0, 0.5, 1, 2, and 3 h after preparation for analysis.

[3] = parameters: method as in PMID 24043590; conditions: cited from earlier work
[4] = in PRE, high concentration (SA5 0.075, SA6 0.130, DISS 0.296 mg/ml), 180 min
[5] = in PRE, low concentration (SA5 0.025, SA6 0.043, DISS 0.099 mg/ml), 180 min
[6] = monomer, high concentration (SA5 0.075, SA6 0.130, DISS 0.296 mg/ml)
[7] = monomer, low concentration (SA5 0.025, SA6 0.043, DISS 0.099 mg/ml)

COc1cc(/C=C/C(=O)OC[C@H]2O[C@H](O[C@]3(CO)O[C@H](CO)[C@@H](O)[C@@H]3OC(=O)/C=C/c3cc(OC)c(O)c(OC)c3)[C@H](O)[C@@H](O)[C@@H]2O)cc(OC)c1O [DISS, 3,6′-disinapoyl sucrose]
K a [1, 4]: 0.109 ± 0.010 ^∗∗,## μg·cm^−2·min^−1 | P (%) percentage of absorption [1, 4]: 2.54 ± 0.19% | P app [1, 4]: 0.61 ± 0.057 ×10^−5cm/s | K a [1, 5]: 0.036 ± 0.0019 μg·cm^−2·min^−1 | P (%) percentage of absorption [1, 5]: 2.55 ± 0.03% | P app [1, 5]: 0.61 ± 0.0033 ×10^−5cm/s | K a [1, 6]: 0.049 ± 0.022 ^∗∗##, μg·cm^−2·min^−1 | P (%) percentage of absorption [1, 6]: 1.18 ± 0.04% | P app [1, 6]: 0.28 ± 0.079 ×10^−5cm/min | K a [1, 7]: 0.015 ± 0.0005 μg·cm^−2·min^−1 | P (%) percentage of absorption [1, 7]: 1.13 ± 0.05% | P app [1, 7]: 0.26 ± 0.068 ×10^−5cm/min | stability in the blank intestinal circulation solution (in words) [2]: stable at 37 °C for 3 h | effect of ATP energy inhibitor sodium azide on absorption [3]: no effect | effect of P-gp inhibitor cyclosporine A on absorption [3]: no significant effect | effect of paracellular enhancers EDTA and sodium caprate (SC) on Papp [3]: could increase Papp
